Results taken from US4281121A, “1,3,4-Thiadiazole-2-carboxylic acid derivatives, process for making the same and fungicidal and nematocidal compositions containing same” (Schering Aktiengesellschaft, priority 1978, dated 1981).

Legend:
[1] = system: Piricularia oryzae; type: in vivo; settings: concentration of active agent 0.1 (percentages); 5 days
[2] = system: Tilletia caries; experiment: Treatment of oat seeds infested with Tilletia caries (spore germination); type: in vivo
[3] = system: Plasmopara viticola; experiment: Prophylactic leaf treatment of grapevines in the hothouse against Plasmopara viticola; type: in vivo
Summary of the method: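 Grapevines (5–8 leaves) sprayed to runoff with compound as 20% spray powder, then after drying inoculated on leaf undersides with sporangial suspension (~20,000/ml). Incubated at 22–24 °C, saturated humidity, 3–4 days normal humidity (30–70%), then one day saturated; activity from mean % infested leaf area per treatment.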

[4] = system: Pythium ultimum; experiment: Threshold concentration test for use of the compounds against Pythium ultimum (infested soil, garden peas); type: in vivo; parameters: key to root evaluation (1-4): 4: white roots without fungous necrosis; 3: white roots, minor fungous necrosis; 2: brown roots, already more pronounced fungous necrosis; 1: heavy fungous necrosis, roots rotted; settings: for root evaluation (1-4): 3 weeks; for number of sound peas: 20 grains per dish, 3 weeks at 20-24° C.
Summary of the method: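 Pulverulent agents at 20% concentration mixed evenly into soil heavily infested with Pythium ultimum, then garden peas ('Wunder von Kelvedon', 20 per dish) sown at once. After three weeks at 20–24 °C in a hothouse, sound peas counted and roots scored on a 1–4 scale.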

[5] = system: Helminthosporium gramineum; experiment: Seed treatment in open field tests for infestation by Helminthosporium gramineum (barley); type: in vivo; settings: summer barley; 50 g active agent/100 kg barley; about 3 months
Procedure: Seed treatment in open field tests for infestation by Helminthosporium gramineum
The active agents were used in the form of pulverulent compositions. After about 8 months in case of winter barley and after about 3 months in case of summer barley the infested plants were counted and the activity was calculated by the formula [formula]

[6] = system: Botrytis cinerea; experiment: Prophylactic leaf treatment of tomato plants against Botrytis cinerea; type: in vivo; settings: concentration of 0.025 of the active agent (unit not given)
[7] = system: Helminthosporium gram; settings: 50 g active agent per 100 kg; about 5 weeks
Procedure: Treatment of barley seeds infested with Helminthosporium gram
After emergence, the plants were subjected to illumination for 12 hours per day. After about 5 weeks the infested plants were counted and the total number of plants for each test were also counted. The active agents tested were used as pulverulent compositions.

[8] = system: Venturia inaequalis; experiment: Prophylactic leaf treatment of apples in open field test against Venturia inaequalis; type: in vivo; settings: 3 weeks
[9] = system: Fusarium avenaceum; experiment: Threshold concentration test in case of Fusarium avenaceum (infested soil, garden peas); type: in vivo; settings: for number of sound peas: 20 grains per dish, 18 days at 20-24° C.; for root evaluation (1-4): 18 days
Summary of the method: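 Soil heavily infested with Fusarium avenaceum was mixed uniformly with a 20% powder formulation of active agent, then sown immediately with 20 garden pea seeds ('Wunder von Kelvedon') per dish. After 18 days in a greenhouse at 20° to 24° C., sound plants were counted and roots scored on a 1–4 scale.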

[10] = system: Penicillium digitatum; experiment: Inhibition of fungus in a nutrient solution: Penicillium digitatum; type: cell-based; settings: 6 days at 21-23° C.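 Note: 0 means no fungus growth and higher grades mean more surface covered.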
[11] = system: Alternaria solani; experiment: Inhibition of fungus in a nutrient solution: Alternaria solani; type: cell-based; settings: 6 days at 21-23° C.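 Note: 0 means no fungus growth and higher grades mean more surface covered.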
[12] = system: Botrytis cinerea; experiment: Inhibition of fungus in a nutrient solution: Botrytis cinerea; type: cell-based; settings: 6 days at 21-23° C.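 Note: 0 means no fungus growth and higher grades mean more surface covered.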
[13] = system: Fusarium avenaceum; experiment: Inhibition of fungus in a nutrient solution: Fusarium avenaceum; type: cell-based; settings: 6 days at 21-23° C.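 Note: 0 means no fungus growth and higher grades mean more surface covered.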
Procedure: Inhibition of fungus in a nutrient solution
20 ml of a nutrient solution of grape juice and water (1:1) were filled into a glass vial of a 100 ml capacity and were mixed with the pulverulent active agents which appear from the subsequent table. Thereafter, the solution was inoculated with conidia (spores) of the test fungi.
After an incubation time of 6 days at 21° to 23° C. the fungus development on the surface of the nutrient solution was evaluated. The test fungi used were the following: Penicillium digitatum, Botrytis cinerea, Alternaria solani, Fusarium avenaceum.
The evaluation was carried out at a scale from 0 to 5 as follows: […]

[14] = concentration of active agent 0.001 (unit not given)
[15] = concentration of active agent 0.005 (unit not given)
[16] = concentration of active agent 0.005 (in gram)
[17] = concentration of active agent 0.025 (in gram)
[18] = concentration of active agent 0.025 (unit not given)

CCCCNC(=O)c1nnc(S(C)(=O)=O)s1 [5-methylsulfonyl-1,3,4-thiadiazole-2-carboxylic acid-butylamide]
% activity [1]: 90% | % activity ([2]; 10 g active agent per 100 kg): 99.2% | % activity ([2]; 20 g active agent per 100 kg): 100% | % activity ([2]; 50 g active agent per 100 kg): 100% | % activity [3, 14]: 83% | % activity [3, 15]: 99.1% | root evaluation (1-4) ([4]; 20 mg/l soil): 2 | number of sound peas ([4]; 20 mg/l soil): 14 | root evaluation (1-4) ([4]; 40 mg/l soil): 4 | number of sound peas ([4]; 40 mg/l soil): 15 | root evaluation (1-4) ([4]; 80 mg/l soil): 4 | number of sound peas ([4]; 80 mg/l soil): 16 | % activity [5]: 99.3% | % activity [6]: 76% | % activity [7]: 90% | % activity [8, 16]: 94% | % activity [8, 17]: 99%

CCC[S+]([O-])c1nnc(C(=O)NC(C)CC)s1 (stereo not shown) [5-propylsulfinyl-1,3,4-thiadiazole-2-carboxylic acid-sec.-butylamide]
% activity ([2]; 20 g active agent per 100 kg): 100% | % activity ([2]; 50 g active agent per 100 kg): 100% | % activity [3, 14]: 86% | % activity [3, 15]: 92% | % activity [3, 18]: 92% | % activity [6]: 80% | % activity [7]: 94% | number of sound peas ([9]; 25 mg/l soil): 9 | root evaluation (1-4) ([9]; 25 mg/l soil): 1 | number of sound peas ([9]; 50 mg/l soil): 17 | root evaluation (1-4) ([9]; 50 mg/l soil): 4 | number of sound peas ([9]; 100 mg/l soil): 17 | root evaluation (1-4) ([9]; 100 mg/l soil): 4

O=C1C2CC=CCC2C(=O)N1SC(Cl)(Cl)Cl (stereo not shown) [N-trichloromethylmercapto-tetrahydro-phthalimide, reference compound]
fungus development on the surface of the nutrient solution (0-5) ([10]; 0.002%): 4 (30 to 60% of the surface covered by the fungus turf) | fungus development on the surface of the nutrient solution (0-5) ([10]; 0.004%): 4 (30 to 60% of the surface covered by the fungus turf) | root evaluation (1-4) ([4]; 20 mg/l soil): 1 | number of sound peas ([4]; 20 mg/l soil): 1 | root evaluation (1-4) ([4]; 40 mg/l soil): 1 | number of sound peas ([4]; 40 mg/l soil): 2 | root evaluation (1-4) ([4]; 80 mg/l soil): 2 | number of sound peas ([4]; 80 mg/l soil): 8 | fungus development on the surface of the nutrient solution (0-5) ([11]; 0.002%): 4 (30 to 60% of the surface covered by the fungus turf) | fungus development on the surface of the nutrient solution (0-5) ([11]; 0.004%): 4 (30 to 60% of the surface covered by the fungus turf) | fungus development on the surface of the nutrient solution (0-5) ([12]; 0.002%): 4 (30 to 60% of the surface covered by the fungus turf) | fungus development on the surface of the nutrient solution (0-5) ([12]; 0.004%): 4 (30 to 60% of the surface covered by the fungus turf)

COC(=O)c1nnc(S(C)(=O)=O)s1 [5-methylsulfonyl-1,3,4-thiadiazole-2-carboxylic acid-methylester]
fungus development on the surface of the nutrient solution (0-5) ([10]; 0.002%): 1 | fungus development on the surface of the nutrient solution (0-5) ([10]; 0.004%): 0 | fungus development on the surface of the nutrient solution (0-5) ([11]; 0.002%): 1 | fungus development on the surface of the nutrient solution (0-5) ([11]; 0.004%): 0 | fungus development on the surface of the nutrient solution (0-5) ([12]; 0.002%): 1 | fungus development on the surface of the nutrient solution (0-5) ([12]; 0.004%): 0 | fungus development on the surface of the nutrient solution (0-5) ([13]; 0.002%): 0 | fungus development on the surface of the nutrient solution (0-5) ([13]; 0.004%): 0

CCCCCS(=O)(=O)c1nnc(C#N)s1 [5-pentylsulfonyl-1,3,4-thiadiazole-2-carbonitrile]
% activity ([2]; 50 g active agent per 100 kg): 90% | % activity [3, 18]: 90% | % activity [6]: 86% | number of sound peas ([9]; 25 mg/l soil): 20 | root evaluation (1-4) ([9]; 25 mg/l soil): 4 | number of sound peas ([9]; 50 mg/l soil): 20 | root evaluation (1-4) ([9]; 50 mg/l soil): 4 | number of sound peas ([9]; 100 mg/l soil): 19 | root evaluation (1-4) ([9]; 100 mg/l soil): 4

CCCNC(=O)c1nnc(S(C)(=O)=O)s1 [5-methylsulfonyl-1,3,4-thiadiazole-2-carboxylic acid-propylamide]
% activity [1]: 90% | % activity ([2]; 10 g active agent per 100 kg): 99.5% | % activity ([2]; 20 g active agent per 100 kg): 100% | % activity ([2]; 50 g active agent per 100 kg): 100% | % activity [3, 15]: 82% | % activity [3, 18]: 95% | root evaluation (1-4) ([4]; 20 mg/l soil): 4 | number of sound peas ([4]; 20 mg/l soil): 15 | root evaluation (1-4) ([4]; 40 mg/l soil): 4 | number of sound peas ([4]; 40 mg/l soil): 15 | root evaluation (1-4) ([4]; 80 mg/l soil): 4 | number of sound peas ([4]; 80 mg/l soil): 15 | % activity [5]: 100% | % activity [6]: 76% | % activity [7]: 93% | % activity [8, 16]: 98% | % activity [8, 17]: 99.7%
